Test results taken from ChEMBL document CHEMBL5543132, “Development of (2-(Benzyloxy)phenyl)methanamine Derivatives as Potent and Selective Inhibitors of CARM1 for the Treatment of Melanoma” (J Med Chem, 2024).

Experiments:
[1] = molecular target: T1, Protein arginine N-methyltransferase 7 (Homo sapiens, UniProt Q9NVM4); experiment: Inhibition of PRMT7 (unknown origin)
T1 sequence (Q9NVM4 whole entry): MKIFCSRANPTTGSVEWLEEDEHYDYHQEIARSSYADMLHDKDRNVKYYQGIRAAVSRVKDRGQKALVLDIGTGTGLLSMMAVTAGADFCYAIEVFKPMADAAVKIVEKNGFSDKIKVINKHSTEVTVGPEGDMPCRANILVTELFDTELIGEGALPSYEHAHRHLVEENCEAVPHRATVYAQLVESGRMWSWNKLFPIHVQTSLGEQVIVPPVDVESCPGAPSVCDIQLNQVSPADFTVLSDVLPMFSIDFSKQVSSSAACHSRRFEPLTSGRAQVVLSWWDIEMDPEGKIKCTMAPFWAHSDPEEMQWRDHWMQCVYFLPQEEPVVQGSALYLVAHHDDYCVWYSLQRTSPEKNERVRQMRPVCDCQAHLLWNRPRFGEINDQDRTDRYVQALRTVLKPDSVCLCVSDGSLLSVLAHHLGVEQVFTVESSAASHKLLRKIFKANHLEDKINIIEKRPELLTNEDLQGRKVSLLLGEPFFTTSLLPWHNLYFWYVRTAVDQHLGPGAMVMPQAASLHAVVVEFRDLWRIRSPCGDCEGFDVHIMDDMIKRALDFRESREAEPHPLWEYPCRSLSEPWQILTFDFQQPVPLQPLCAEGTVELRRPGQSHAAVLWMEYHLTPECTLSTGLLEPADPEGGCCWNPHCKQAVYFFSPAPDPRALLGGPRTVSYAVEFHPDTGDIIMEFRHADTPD

[2] = molecular target: Protein arginine N-methyltransferase 5 (Homo sapiens, UniProt O14744); experiment: Inhibition of PRMT5 (unknown origin)
Chain of Protein arginine N-methyltransferase 5 (O14744 whole entry): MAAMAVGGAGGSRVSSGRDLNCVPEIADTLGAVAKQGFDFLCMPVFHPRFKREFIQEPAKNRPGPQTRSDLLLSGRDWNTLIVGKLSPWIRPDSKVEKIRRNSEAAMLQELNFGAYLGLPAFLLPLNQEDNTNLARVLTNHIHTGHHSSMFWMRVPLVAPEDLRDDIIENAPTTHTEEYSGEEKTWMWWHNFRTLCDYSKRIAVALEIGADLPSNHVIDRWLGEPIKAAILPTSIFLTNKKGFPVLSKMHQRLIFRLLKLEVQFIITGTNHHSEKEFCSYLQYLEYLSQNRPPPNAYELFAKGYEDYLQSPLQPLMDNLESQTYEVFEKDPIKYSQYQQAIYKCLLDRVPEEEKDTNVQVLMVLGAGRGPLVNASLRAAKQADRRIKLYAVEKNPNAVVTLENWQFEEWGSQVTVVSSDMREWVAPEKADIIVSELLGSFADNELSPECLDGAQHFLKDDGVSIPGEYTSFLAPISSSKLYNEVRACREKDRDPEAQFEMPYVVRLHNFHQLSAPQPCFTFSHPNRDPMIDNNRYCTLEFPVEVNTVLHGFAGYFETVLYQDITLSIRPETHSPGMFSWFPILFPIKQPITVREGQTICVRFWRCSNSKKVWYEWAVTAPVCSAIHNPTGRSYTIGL

[3] = molecular target: Protein arginine N-methyltransferase 3 (Homo sapiens, UniProt O60678); experiment: Inhibition of PRMT3 (unknown origin)
Chain of Protein arginine N-methyltransferase 3 (O60678 whole entry): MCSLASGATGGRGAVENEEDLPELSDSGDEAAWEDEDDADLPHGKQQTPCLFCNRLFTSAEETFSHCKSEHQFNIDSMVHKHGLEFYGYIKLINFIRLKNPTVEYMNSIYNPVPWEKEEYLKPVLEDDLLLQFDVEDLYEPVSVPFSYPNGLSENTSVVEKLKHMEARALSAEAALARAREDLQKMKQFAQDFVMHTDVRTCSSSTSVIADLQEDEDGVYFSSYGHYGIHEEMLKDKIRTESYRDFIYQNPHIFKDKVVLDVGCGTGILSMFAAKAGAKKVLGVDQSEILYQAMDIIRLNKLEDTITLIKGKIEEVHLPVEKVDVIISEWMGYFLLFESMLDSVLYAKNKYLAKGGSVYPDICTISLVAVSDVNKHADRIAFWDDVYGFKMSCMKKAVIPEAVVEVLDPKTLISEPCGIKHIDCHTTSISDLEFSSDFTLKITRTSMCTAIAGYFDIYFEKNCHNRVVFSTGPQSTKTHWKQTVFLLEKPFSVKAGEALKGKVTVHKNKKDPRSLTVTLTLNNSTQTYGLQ

[4] = molecular target: Protein arginine N-methyltransferase 8 (Homo sapiens, UniProt Q9NR22); experiment: Inhibition of PRMT8 (unknown origin)
Chain of Protein arginine N-methyltransferase 8 (Q9NR22 whole entry): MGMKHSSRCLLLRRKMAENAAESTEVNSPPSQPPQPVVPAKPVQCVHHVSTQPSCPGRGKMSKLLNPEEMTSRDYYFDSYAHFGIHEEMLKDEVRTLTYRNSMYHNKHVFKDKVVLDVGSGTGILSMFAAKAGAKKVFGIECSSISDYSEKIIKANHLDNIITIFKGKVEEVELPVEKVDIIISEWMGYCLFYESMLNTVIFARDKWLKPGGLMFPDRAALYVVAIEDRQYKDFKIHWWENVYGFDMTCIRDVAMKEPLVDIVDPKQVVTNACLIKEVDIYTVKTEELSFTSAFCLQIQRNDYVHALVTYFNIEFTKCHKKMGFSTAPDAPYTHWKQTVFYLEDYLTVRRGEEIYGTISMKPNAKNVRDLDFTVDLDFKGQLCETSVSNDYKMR

[5] = molecular target: Protein arginine N-methyltransferase 6 (Homo sapiens, UniProt Q96LA8); experiment: Inhibition of PRMT6 (unknown origin)
Chain of Protein arginine N-methyltransferase 6 (Q96LA8 whole entry): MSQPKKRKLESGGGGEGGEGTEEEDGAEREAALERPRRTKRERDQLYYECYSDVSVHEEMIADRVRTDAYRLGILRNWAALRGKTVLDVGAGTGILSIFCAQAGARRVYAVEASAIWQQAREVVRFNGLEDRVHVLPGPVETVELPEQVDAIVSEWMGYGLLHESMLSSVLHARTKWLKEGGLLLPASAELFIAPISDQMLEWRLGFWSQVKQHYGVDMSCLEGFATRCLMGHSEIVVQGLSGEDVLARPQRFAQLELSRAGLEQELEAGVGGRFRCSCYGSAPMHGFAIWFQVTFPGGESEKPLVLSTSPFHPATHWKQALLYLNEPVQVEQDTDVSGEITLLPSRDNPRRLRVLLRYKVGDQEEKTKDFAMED

[6] = molecular target: T2, Histone-arginine methyltransferase CARM1 (Homo sapiens, UniProt Q86X55)
T2 sequence (Q86X55 whole entry): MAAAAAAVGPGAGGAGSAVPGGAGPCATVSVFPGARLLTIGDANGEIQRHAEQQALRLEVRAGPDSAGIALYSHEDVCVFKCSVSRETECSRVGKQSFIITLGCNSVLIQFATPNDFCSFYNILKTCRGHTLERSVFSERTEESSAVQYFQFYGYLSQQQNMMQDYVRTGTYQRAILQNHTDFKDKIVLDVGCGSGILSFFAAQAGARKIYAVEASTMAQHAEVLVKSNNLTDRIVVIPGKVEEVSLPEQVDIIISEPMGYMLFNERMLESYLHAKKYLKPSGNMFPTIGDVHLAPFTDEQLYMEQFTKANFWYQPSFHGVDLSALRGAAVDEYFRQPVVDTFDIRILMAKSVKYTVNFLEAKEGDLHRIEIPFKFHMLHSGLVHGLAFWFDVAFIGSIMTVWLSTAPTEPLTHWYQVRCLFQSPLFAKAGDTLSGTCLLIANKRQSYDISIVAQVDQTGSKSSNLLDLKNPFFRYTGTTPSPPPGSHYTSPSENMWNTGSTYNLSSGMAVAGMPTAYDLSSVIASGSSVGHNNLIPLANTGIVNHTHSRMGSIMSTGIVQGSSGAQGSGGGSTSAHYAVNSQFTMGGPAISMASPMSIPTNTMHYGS
Description: Inhibition of CARM1 (unknown origin)

CNC[C@H](O)CN(C)Cc1ccccc1OCc1ccc(-c2nccs2)c(Cl)c1
IC50 [1]: > 100000 nM | IC50 [2]: > 100000 nM | IC50 [3]: 942 nM | IC50 [4]: 73 nM | IC50 [5]: 64 nM

CNCC(O)CN1CCc2c(cccc2OCc2ccc(-c3nccs3)cc2)C1 (stereo unspecified)
IC50 [6]: 21 nM
